Test results from patent US10844052B2, “LLS compounds for treatment of cancer” (THE REGENTS OF THE UNIVERSITY OF CALIFORNIA, priority 2016, dated 2020).

How the values were obtained:
[1] = test system: PC3 prostate cancer cells; assay: Cell viability of prostate cancer PC3 cells after 72 hours treatment; assay type: cell-based; conditions: Homo sapiens; for viability at 2.5 µM: PC-3, 2.5 μM; for viability at 5 µM: PC-3, 5 μM; for viability at 10 µM: PC-3, 10 μM; for viability at 20 µM: PC-3, 20 μM
Protocol: Effects of compounds LLS42-LLS80 on the viability of PC3 prostate cancer cells after 72 hours of treatment are shown in Table 2 below: […]

[2] = test system: 22RV1 prostate cancer cells; assay: Cell viability of prostate cancer 22RV1 cells after 72 hours treatment; assay type: cell-based; conditions: Homo sapiens

## NC(=O)CC(NCc1ccc(-c2ccncc2)cc1)c1ccc2c(c1)nc(-c1ccc(N(CCO)CCO)cc1)n2CCCn1ccnc1 (stereo not drawn) [LLS58, 3-(1-(3-(1H-imidazol-1-yl)propyl)-2-(4-(bis(2-hydroxyethyl)amino)phenyl)-1H-benzo[d]imidazol-5-yl)-3-((4-(pyridin-4-yl)benzyl)amino)propanamide]
[1]
  viability at 2.5 µM: 92%
  viability at 5 µM: 84%
  viability at 10 µM: 81%
  viability at 20 µM: 74%

## CC(=O)OCCN(CCOC(C)=O)c1ccc(-c2nc3cc(C(CC(N)=O)NCc4ccc(-c5ccncc5)cc4)ccc3n2CCCn2ccnc2)cc1 (stereo not drawn) [LLS58Ac, ((4-(1-(3-(1H-imidazol-1-yl)propyl)-5-(3-amino-3-oxo-1-((4-(pyridin-4-yl)benzyl)amino)propyl)-1H-benzo[d]imidazol-2-yl)phenyl)azanediyl)bis(ethane-2,1-diyl) Diacetate]
[1]
  viability at 2.5 µM: 100%
  viability at 5 µM: 98%
  viability at 10 µM: 91%
  viability at 20 µM: 83%

## COc1cccc(Cn2c(-c3ccc(N(CCO)CCO)cc3)nc3cc(C(CC(N)=O)NCc4ccc5[nH]ncc5c4)ccc32)c1 (stereo not drawn) [LLS59, 3-(((1H-indazol-5-yl)methyl)amino)-3-(2-(4-(bis(2-hydroxyethyl)amino)phenyl)-1-(3-methoxybenzyl)-1H-benzo[d]imidazol-5-yl)propanamide]
[1]
  viability at 2.5 µM: 83%
  viability at 5 µM: 97%
  viability at 10 µM: 90%
  viability at 20 µM: 91%

## NC(=O)CC(NCc1cccc2ccccc12)c1ccc2c(c1)nc(-c1ccc(N(CCO)CCO)cc1)n2Cc1ccc(OC(F)(F)F)cc1 (stereo not drawn) [LLS63, 3-(2-(4-(bis(2-hydroxyethyl)amino)phenyl)-1-(4-(trifluoromethoxy)benzyl)-1H-benzo[d]imidazol-5-yl)-3-((naphthalen-1-ylmethyl)amino)propanamide]
[1]
  viability at 2.5 µM: 80%
  viability at 5 µM: 86%
  viability at 10 µM: 29%
  viability at 20 µM: 0%

## CN1CCN(c2ccc(-c3nc4cc(C(CC(N)=O)NCc5ccc(Cl)c(Cl)c5)ccc4n3Cc3ccc(C(F)(F)F)cc3)cc2)CC1 (stereo not drawn) [LLS64, 3-((3,4-dichlorobenzyl)amino)-3-(2-(4-(4-methylpiperazin-1-yl)phenyl)-1-(4-(trifluoromethyl)benzyl)-1H-benzo[d]imidazol-5-yl)propanamide]
[1]
  viability at 2.5 µM: 94%
  viability at 5 µM: 83%
  viability at 10 µM: 60%
  viability at 20 µM: 3%

## NC(=O)CC(NCc1ccc(Cl)c(Cl)c1)c1ccc2c(c1)nc(-c1ccc(N3CCOCC3)cc1)n2CCCN1CCCCC1 (stereo not drawn) [LLS65, 3-((3,4-dichlorobenzyl)amino)-3-(2-(4-morpholinophenyl)-1-(3-(piperidin-1-yl)propyl)-1H-benzo[d]imidazol-5-yl)propanamide]
[1]
  viability at 2.5 µM: 95%
  viability at 5 µM: 94%
  viability at 10 µM: 74%
  viability at 20 µM: 34%

## CC(=O)OCCN(CCO)c1ccc(-c2nc3cc(C(CC(N)=O)NCc4ccc(-c5ccn[nH]5)s4)ccc3n2CCCN(C)C)cc1 (stereo not drawn) [LLS66, 2-((4-(5-(1-(((5-(1H-pyrazol-5-yl)thiophen-2-yl)methyl)amino)-3-amino-3-oxopropyl)-1-(3-(dimethylamino)propyl)-1H-benzo[d]imidazol-2-yl)phenyl)(2-hydroxyethyl)amino)ethyl Acetate]
[1]
  viability at 2.5 µM: 98%
  viability at 5 µM: 91%
  viability at 10 µM: 89%
  viability at 20 µM: 79%

## CC(=O)OCCN(CCO)c1ccc(-c2nc3cc(C(CC(N)=O)NCc4ccc(-c5ccncc5)cc4)ccc3n2CCCn2ccnc2)cc1 (stereo not drawn) [LLS67, 2-((4-(1-(3-(1H-imidazol-1-yl)propyl)-5-(3-amino-3-oxo-1-((4-(pyridin-4-yl)benzyl)amino)propyl)-1H-benzo[d]imidazol-2-yl)phenyl)(2-hydroxyethyl)amino)ethyl Acetate]
[1]
  viability at 2.5 µM: 93%
  viability at 5 µM: 94%
  viability at 10 µM: 99%
  viability at 20 µM: 93%

## COc1ccc(CCn2c(-c3ccc(N(CCOC(C)=O)CCOC(C)=O)cc3)nc3cc(C(CC(N)=O)NCc4ccc5[nH]ccc5c4)ccc32)cc1 (stereo not drawn) [LLS69Ac, ((4-(5-(1-(((1H-indol-5-yl)methyl)amino)-3-amino-3-oxopropyl)-1-(4-methoxyphenethyl)-1H-benzo[d]imidazol-2-yl)phenyl)azanediyl)bis(ethane-2,1-diyl) Diacetate]
[1]
  viability at 2.5 µM: 101%
  viability at 5 µM: 95%
  viability at 10 µM: 73%
  viability at 20 µM: 2%

## NC(=O)CC(NCC1CCCCC1)c1ccc2c(c1)nc(-c1ccc(N(CCO)CCO)cc1)n2Cc1ccc(C(F)(F)F)cc1 (stereo not drawn) [LLS71, 3-(2-(4-(bis(2-hydroxyethyl)amino)phenyl)-1-(4-(trifluoromethyl)benzyl)-1H-benzo[d]imidazol-5-yl)-3-((cyclohexylmethyl)amino)propanamide]
[1]
  viability at 2.5 µM: 91%
  viability at 5 µM: 83%
  viability at 10 µM: 59%
  viability at 20 µM: 3%

## NC(=O)CC(NCc1cccc2ccccc12)c1ccc2c(c1)nc(-c1ccc(N(CCO)CCO)cc1)n2Cc1ccc(C(F)(F)F)cc1 (stereo not drawn) [LLS73, 3-(2-(4-(bis(2-hydroxyethyl)amino)phenyl)-1-(4-(trifluoromethyl)benzyl)-1H-benzo[d]imidazol-5-yl)-3-((naphthalen-1-ylmethyl)amino)propanamide]
[1]
  viability at 2.5 µM: 94%
  viability at 5 µM: 92%
  viability at 10 µM: 69%
  viability at 20 µM: 8%

## COc1ccc(CCn2c(-c3ccc(N(CCOC(C)=O)CCOC(C)=O)cc3)nc3cc(C(N)CC(N)=O)ccc32)cc1 (stereo not drawn) [LLS76, ((4-(5-(1,3-diamino-3-oxopropyl)-1-(4-methoxyphenethyl)-1H-benzo[d]imidazol-2-yl)phenyl)azanediyl)bis(ethane-2,1-diyl) Diacetate]
[1]
  viability at 2.5 µM: 92%
  viability at 5 µM: 86%
  viability at 10 µM: 86%
  viability at 20 µM: 85%

## NC(=O)CC(NCc1ccc2[nH]ncc2c1)c1ccc2c(c1)nc(-c1ccc(N(CCO)CCO)cc1)n2Cc1ccc(C(F)(F)F)cc1 (stereo not drawn) [LLS77, 3-(((1H-indazol-5-yl)methyl)amino)-3-(2-(4-(bis(2-hydroxyethyl)amino)phenyl)-1-(4-(trifluoromethyl)benzyl)-1H-benzo[d]imidazol-5-yl)propanamide]
[1]
  viability at 2.5 µM: 99%
  viability at 5 µM: 100%
  viability at 10 µM: 101%
  viability at 20 µM: 103%

## CC(=O)OCCN(CCOC(C)=O)c1ccc(-c2nc3cc(C(CC(N)=O)NCc4ccc(-c5ccn[nH]5)s4)ccc3n2CCCN(C)C)cc1 (stereo not drawn) [LLS78, ((4-(5-(1-(((5-(1H-pyrazol-5-yl)thiophen-2-yl)methyl)amino)-3-amino-3-oxopropyl)-1-(3-(dimethylamino)propyl)-1H-benzo[d]imidazol-2-yl)phenyl)azanediyl)bis(ethane-2,1-diyl) Diacetate]
[1]
  viability at 2.5 µM: 97%
  viability at 5 µM: 93%
  viability at 10 µM: 101%
  viability at 20 µM: 100%

## NC(=O)CC(NCC1CCCCC1)c1ccc2c(c1)nc(-c1ccc(N3CCOCC3)cc1)n2Cc1ccc(OC(F)(F)F)cc1 (stereo not drawn) [LLS80, 3-((cyclohexylmethyl)amino)-3-(2-(4-morpholinophenyl)-1-(4-(trifluoromethoxy)benzyl)-1H-benzo[d]imidazol-5-yl)propanamide]
[1]
  viability at 2.5 µM: 86%
  viability at 5 µM: 25%
  viability at 10 µM: 6%
  viability at 20 µM: 0%

## NC(=O)CC(NCc1ccc(F)c(F)c1)c1ccc2c(c1)nc(-c1ccc(N(CCO)CCO)cc1)n2Cc1ccc(Cl)c(Cl)c1 (stereo not drawn) [LLS83, 3-(2-(4-(bis(2-hydroxyethyl)amino)phenyl)-1-(3,4-dichlorobenzyl)-1H-benzo[d]imidazol-5-yl)-3-((3,4-difluorobenzyl)amino)propanamide]
[2]
  viability at 2.5 µM: 20%
  viability at 5 µM: 1%
  viability at 10 µM: 0%

## NC(=O)CC(NCc1ccncc1)c1ccc2c(c1)nc(-c1ccc(N(CCO)CCO)cc1)n2Cc1ccc(Cl)c(Cl)c1 (stereo not drawn) [LLS84, 3-(2-(4-(bis(2-hydroxyethyl)amino)phenyl)-1-(3,4-dichlorobenzyl)-1H-benzo[d]imidazol-5-yl)-3-((pyridin-4-ylmethyl)amino)propanamide]
[2]
  viability at 2.5 µM: 119%
  viability at 5 µM: 109%
  viability at 10 µM: 138%

## CN(C)CCCOc1ccc(-c2nc3cc(C(CC(N)=O)NCc4ccc(Cl)c(Cl)c4)ccc3n2Cc2ccc(Cl)c(Cl)c2)cc1 (stereo not drawn) [LLS85, 3-(1-(3,4-dichlorobenzyl)-2-(4-(3-(dimethylamino)propoxy)phenyl)-1H-benzo[d]imidazol-5-yl)-3-((3,4-dichlorobenzyl)amino)propanamide]
[2]
  viability at 2.5 µM: 65%
  viability at 5 µM: 1%
  viability at 10 µM: 0%

## CN1CCN(c2ccc(-c3nc4cc(C(CC(N)=O)NCc5ccc(Cl)c(Cl)c5)ccc4n3Cc3ccc(Cl)c(Cl)c3)cc2)CC1 (stereo not drawn) [LLS86, 3-(1-(3,4-dichlorobenzyl)-2-(4-(4-methylpiperazin-1-yl)phenyl)-1H-benzo[d]imidazol-5-yl)-3-((3,4-dichlorobenzyl)amino)propanamide]
[2]
  viability at 2.5 µM: 45%
  viability at 5 µM: 0%
  viability at 10 µM: 0%

## NC(=O)CC(NCc1ccc(Cl)c(Cl)c1)c1ccc2c(c1)nc(-c1cccc(OCCN3CCOCC3)c1)n2Cc1ccc(Cl)c(Cl)c1 (stereo not drawn) [LLS87, 3-(1-(3,4-dichlorobenzyl)-2-(3-(2-morpholinoethoxy)phenyl)-1H-benzo[d]imidazol-5-yl)-3-((3,4-dichlorobenzyl)amino)propanamide]
[2]
  viability at 2.5 µM: 76%
  viability at 5 µM: 56%
  viability at 10 µM: 0%

## NC(=O)CC(NCC1CCCCC1)c1ccc2c(c1)nc(-c1ccncc1)n2Cc1ccc(OC(F)(F)F)cc1 (stereo not drawn) [LLS88, 3-((cyclohexylmethyl)amino)-3-(2-(pyridin-4-yl)-1-(4-(trifluoromethoxy)benzyl)-1H-benzo[d]imidazol-5-yl)propanamide]
[2]
  viability at 2.5 µM: 75%
  viability at 5 µM: 4%
  viability at 10 µM: 0%
